# Test results reported in US20210177778A1, “EXOSOME PRODUCTION PROMOTER” (DAICEL CORPORATION, priority 2017, published 2021).
# System: Human neuroblastoma-derived SH-SY5Y cell
# Test: Number of exosome particles released by SH-SY5Y cells after sphingolipid addition (qNano)
# Type: cell-based
# Conditions: 10 μM sphingolipid, 24 hours, particles per mg cell protein
# Description: Human neuroblastoma-derived SH-SY5Y cell was used as the cultured cell. After the cell was inoculated in a 6-well plate at 2.5×10^5 cells/well together with a medium (50% Ham's F12/50% E-MEM) and cultured at 37° C. for 24 hours, the animal ceramide (Cer), sphingomyelin (SM), or glucosylceramide (GuCer) sphingolipid was each added to each well. The sphingolipid was suspended in a serum-free medium (50% Ham's F12/50% E-MEM) containing 3% bovine serum albumin (BSA), and added so that the concentration in the well was 10 μM. The control was performed when the added amount of sphingolipid was 0 μM. […]
# The exosome recovered by the centrifugation method was suspended in a HEPES/KCl buffer, and then the number of particles was measured with a nanoparticle analyzer qNano (Izon Inc.). The measured value was expressed as the number of particles per protein mass (mg) of the derived cell calculated by the BCA method. […]
# Experimental Example 2 was performed under the same conditions as in the above Experimental Example 1 except that the konjac-derived glucosylceramide (kGluCer) or the konjac-derived ceramide (kCer) are used as the sphingolipid and sphingolipids having concentrations of 5 μM, 7.5 μM, or 10 μM, respectively, were added to the cell in place of a concentration of 0 μM (control), and the number of exosome particles was measured.
row,SMILES,number of exosome particles compared to the control
1,"CCCCCCCCCCCCC/C=C/[C@@H](O)[C@H](CO)NC(=O)CCCCCCCCCCCCCCCCC [C18 ceramide, N-stearoyl-D-erythro-sphingosine]",further promoted
2,"CCCCCCCCCCCCC/C=C/[C@@H](O)[C@H](CO)NC(=O)CCCCC [C6 ceramide, N-hexanoyl-D-erythro-sphingosine]",further promoted
